This is an account of results in patent US10369146B2, “Phenyl linked quinolinyl modulators of RORγt” (Janssen Pharmaceutica NV, priority 2013, dated 2019).

Counter-ions that a name gives are not always drawn.

One experiment deals with T1, human RORγt LBD (Homo sapiens, UniProt P51449).
T1 construct: expressed in transfected cells; host or cells: HEK293T
T1 sequence (P51449 258-518): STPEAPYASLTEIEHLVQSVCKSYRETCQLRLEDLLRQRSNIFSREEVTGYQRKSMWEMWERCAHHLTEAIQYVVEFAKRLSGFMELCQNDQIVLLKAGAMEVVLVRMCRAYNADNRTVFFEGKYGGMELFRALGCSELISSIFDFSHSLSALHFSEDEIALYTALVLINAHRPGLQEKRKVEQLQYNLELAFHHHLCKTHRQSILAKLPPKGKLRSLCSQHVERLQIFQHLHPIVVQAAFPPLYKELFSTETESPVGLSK
In words: RORγt reporter assay (GAL4-RORγt LBD luciferase, HEK293T cells). In kind it is cell-based. To be noted: for RORγt reporter Assay, % inhibition @ 6 μM: 6 μM compound; for RORγt reporter Assay, % inhibition @ 6 μM / IC50: HEK293T cells; for IC50: 24 hours compound treatment, firefly/renilla luciferase ratio; for inhibition at 6 µM: HEK-293T, read-out: RORγt reporter Assay, % inhibition @ 6 μM, 6 μM compound, HEK293T cells. The text has this: A reporter assay was used to test functional activity of RORγt modulatory compounds on transcriptional activation driven by the RORγt LBD. Cells used in the assay were co-transfected with two constructs. The first construct, pBIND-RORγt LBD, contained the wild type human RORγt LBD fused to the DNA binding domain of the GAL4 protein. The second construct, pGL4.31 (Promega Cat no. C935A), contained multiple GAL4 responsive DNA elements upstream of firefly luciferase. […] The mutant construct was called pBIND-RORγt-AF2.
The pBIND vector contains the GAL4 DNA Binding Domain (GAL4 DBD) and the renilla luciferase gene under control of the SV40 promoter. Renilla luciferase expression serves as a control for transfection efficiency and cell viability.
The reporter assay was performed by transiently transfecting HEK293T cells with 5 μg of pBIND-RORγt LBD or pBIND-RORγt LBD-AF2 and 5 μg pGL4.31 (Promega Cat no. C935A) using Fugene 6 (Invitrogen Cat no. E2691) at a 1:6 ratio of DNA:Fugene 6 in a T-75 flask in which cells were at least 80% confluent. Twenty four hours after bulk transfection, cells were plated into 96-well plates at 50,000 cells/well in phenol-red free DMEM containing 5% Lipid Reduced FCS and Pen/Strep. Six hours after plating, cells were treated with compounds for 24 hours. Media was removed and cells were lysed with 50 μL 1×Glo Lysis Buffer (Promega). Dual Glo Luciferase Reagent (50 μL/well) was then added and firefly luciferase luminescence was read on an Envision after a ten minute incubation. Finally, Stop and Glo reagent (50 IAL/well) was added and renilla luciferase luminescence was read on an Envision instrument after a ten minute incubation. To calculate the effect of compounds on RORγt activity, the ratio of firefly to renilla luciferase was determined and plotted against compound concentration. Agonist compounds increase RORγt-driven luciferase expression, and antagonist or inverse agonist compounds decrease luciferase expression.
For orientation: In a reporter assay the amount or activity of a reporter protein is the signal.

The subject of experiment [1] is IL-17 production by CD4 T cells. In words: Human Th17 assay (IL-17 production by CD4 T cells under Th17 differentiation). Type of experiment: cell-based. Particulars: 3 days, IL-17 in supernatant. The protocol: The human Th17 assay tests the effect of RORγt modulatory compounds on IL-17 production by CD4 T cells under conditions which favor Th17 differentiation. Total CD4^+ T cells were isolated from the peripheral blood mononuclear cells (PBMC) of healthy donors using a CD4^+ T cell isolation kit II, following the manufacturer's instructions (Miltenyi Biotec). […] 50 μL of compound at titrated concentrations in DMSO were added into each well at final DMSO concentration at 0.2%. Cells were incubated for 1 hour, then 50 μL of Th17 cell differentiation medium was added to each well. The final concentrations of antibodies and cytokines (R&D Systems) in differentiation medium were: 3×10^6/mL anti-CD3/CD28 beads (prepared using human T cell activation/expansion kit, Miltenyi Biotec), 10 μg/mL anti-IL4, 10 μg/mL anti-IFNγ, 10 ng/mL IL1β, 10 ng/mL IL23, 50 ng/mL IL6, 3 ng/mL TGFβ and 20 U/mL IL2. Cells were cultured at 37° C. and 5% CO2 for 3 days. Supernatants were collected and the accumulated IL-17 in culture was measured by using MULTI-SPOT® Cytokine Plate following manufacture's instruction (Meso Scale Discovery). The plate was read using Sector Imager 6000, and IL-17 concentration was extrapolated from the standard curve. The IC50s were determined by GraphPad.

Experiment [2] deals with T2, human RORγt ligand binding domain (RORγt LBD) (Homo sapiens, UniProt P51449).
T2 construct: His-tag (N); TurboTEV protease cleavage site (ENLYFQG) (N); made in house; host or cells: E. coli (pHIS1, modified pET vector)
T2 sequence (P51449 with tags, fused parts or gaps): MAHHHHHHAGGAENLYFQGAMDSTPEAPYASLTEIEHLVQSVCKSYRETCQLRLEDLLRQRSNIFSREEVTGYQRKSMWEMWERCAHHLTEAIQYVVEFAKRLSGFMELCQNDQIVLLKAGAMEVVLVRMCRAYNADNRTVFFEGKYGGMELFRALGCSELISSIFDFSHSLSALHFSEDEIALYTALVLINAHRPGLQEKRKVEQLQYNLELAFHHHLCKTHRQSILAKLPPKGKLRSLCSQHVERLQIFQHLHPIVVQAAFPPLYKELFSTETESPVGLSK
In words: RORγt ThermoFluor® assay (thermal shift binding). To be noted: RORγt LBD, 1,8-ANS dye, pH 7.0; Kd estimated from thermal shift. The protocol: This approach is applicable to a wide variety of systems, and rigorous in theoretical interpretation through quantitation of equilibrium binding constants (KD).
The shift in the melting point described as a ΔTm is proportional to the concentration and affinity of the ligand.
Protein and compound solutions are dispensed into black 384-well polypropylene PCR microplates (Abgene) and overlayed with silicone oil (1 μL, Fluka, type DC 200) to prevent evaporation.
Bar-coded assay plates are robotically loaded onto a thermostatically controlled PCR-type thermal block and then heated at a typical ramp-rate of 1° C./min for all experiments. Fluorescence was measured by continuous illumination with UV light (Hamamatsu LC6) supplied via fiber optic and filtered through a band-pass filter (380-400 nm; >6 OD cutoff). Fluorescence emission of the entire 384-well plate was detected by measuring light intensity using a CCD camera (Sensys, Roper Scientific) filtered to detect 500±25 nm, resulting in simultaneous and independent readings of all 384 wells. Images were collected at each temperature, and the sum of the pixel intensity in a given area of the assay plate was recorded versus temperature. Reference wells contained RORγt without compounds, and the assay conditions were as follows: • 0.065 mg/mL RORγt • 60 μM 1,8-ANS • 100 mM Hepes, pH 7.0 • 10 mM NaCl • 2.5 mM GSH • 0.002% Tween-20
Project compounds were arranged in a pre-dosed mother plate (Greiner Bio-one) wherein compounds are serially diluted in 100% DMSO by 1:2 from a high concentration of 10 mM over 12 columns within a series (column 12 is a reference well containing DMSO, no compound). The compounds were robotically dispensed directly into assay plates (1×=46 nL) using a Hummingbird capillary liquid handling instrument (Digilab). Following compound dispense, protein and dye in buffer was added to achieve the final assay volume of 3 μL, followed by 1 μL of silicone oil.

As to `CC(=O)N1CCC(C(O)(c2cccnc2)c2ccc3nc(C(F)(F)F)c(-c4ccccc4)c(C#N)c3c2)CC1` (single isomer, unassigned) [Example 30c, 6-((1-Acetylpiperidin-4-yl)(hydroxy)(pyridin-3-yl)methyl)-3-phenyl-2-(trifluoromethyl)quinoline-4-carbonitrile], on human RORγt LBD, the “RORγt reporter Assay, % inhibition @ 6 μM” value is recorded as 93% and the IC50 turned out to be 140 nM. For the same molecule, it took 2200 nM to reach half-maximal inhibition in experiment [1] (IC50). Further, the dissociation constant Kd in experiment [2] is 9 nM.
Turning to `Cn1cncc1C(O)(c1ccc(Cl)cc1)c1ccc2nc(Cl)c(-c3ccccc3)c(Cl)c2c1` (stereo not shown) [Example 65, (4-Chlorophenyl)(2,4-dichloro-3-phenylquinolin-6-yl)(1-methyl-M-imidazol-5-yl)methanol], in experiment [1] (72 h), inhibition was half-maximal at 1800 nM (IC50).
Regarding `Cc1cc(C(O)(c2ccc(C(F)(F)F)nc2)c2cncn2C)cc2c(C#N)c(-c3ccccc3)c(C#N)nc12` (single isomer, unassigned) [Example 25c, 6-(Hydroxy(1-methyl-1H-imidazol-5-yl)(6-(trifluoromethyl)pyridin-3-yl)methyl)-8-methyl-3-phenylquinoline-2,4-dicarbonitrile], the concentration for half-maximal inhibition (IC50) in experiment [1] (Homo sapiens, CD4+ T, 72 h) was determined as 160 nM.
Take `COc1c(-c2ccccc2)c(Cl)nc2ccc(C(O)(c3cnnn3C)c3cnc(C)n3C)cc12` (single isomer, unassigned) [Example 40b, (2-Chloro-4-methoxy-3-phenylquinolin-6-yl)(1,2-dimethyl-1H-imidazol-5-yl)(1-methyl-1H-1,2,3-triazol-5-yl)methanol]: the IC50 at human RORγt LBD worked out at 680 nM. In experiment [2], the Kd was 150 nM.
With `Cc1nc(C)c(C(O)(c2ccc3nc(Cl)c(-c4ccccc4)c(Cl)c3c2)c2cncn2C)s1` (stereo not shown) [Example 68, (2,4-Dichloro-3-phenylquinolin-6-yl)(2,4-dimethylthiazol-5-yl)(1-methyl-1H-imidazol-5-yl)methanol], the half-maximal inhibitory concentration (IC50) in experiment [1] (72 h) was found to be 20 nM.
For `Cn1cncc1C(O)(c1ccc(Cl)cc1)c1ccc2nc(C(F)(F)F)c(-c3ccccc3)c(C#N)c2c1` (single isomer, unassigned) [Example 31a, 6-((4-Chlorophenyl)(hydroxy)(1-methyl-1H-imidazol-5-yl)methyl)-3-phenyl-2-(trifluoromethyl)quinoline-4-carbonitrile.TFA], on human RORγt LBD, the IC50 was found to be 150 nM and the inhibition at 6 µM is 102%.
Turning to `Cn1cncc1C(O)(c1ccc(Cl)cc1)c1ccc2nc(C(F)(F)F)c(-c3ccccc3)c(C#N)c2c1` (single isomer, unassigned) [Example 31c, 6-((4-Chlorophenyl)(hydroxy)(1-methyl-1H-imidazol-5-yl)methyl)-3-phenyl-2-(trifluoromethyl)quinoline-4-carbonitrile], on human RORγt LBD, the “RORγt reporter Assay, % inhibition @ 6 μM” value is recorded as 85% and the concentration for half-maximal inhibition (IC50) is 1600 nM. The Kd in experiment [2] is 3300 nM.
As for `Cn1cncc1C(O)(c1ccc(Cl)cc1)c1ccc2nc(C(F)(F)F)c(-c3ccccc3)c(C#N)c2c1` (single isomer, unassigned) [Example 31b, 6-((4-Chlorophenyl)(hydroxy)(1-methyl-1H-imidazol-5-yl)methyl)-3-phenyl-2-(trifluoromethyl)quinoline-4-carbonitrile], at human RORγt LBD, the “RORγt reporter Assay, % inhibition @ 6 μM” value is given as 103% and the half-maximal inhibitory concentration (IC50) stood at 42 nM. Besides, the half-maximal inhibitory concentration (IC50) in experiment [1] (Homo sapiens, CD4+ T, 72 h) was found to be 20 nM. For the same molecule, the dissociation constant Kd in experiment [2] is 5 nM.
Take `CC(=O)N1CCC(C(O)(c2cccnc2)c2ccc3nc(C(F)(F)F)c(-c4ccccc4)c(C#N)c3c2)CC1` (single isomer, unassigned) [Example 30a, 6-((1-Acetylpiperidin-4-yl)(hydroxy)(pyridin-3-yl)methyl)-3-phenyl-2-(trifluoromethyl)quinoline-4-carbonitrile.TFA]: on human RORγt LBD, the IC50 worked out at 110 nM and the inhibition at 6 µM is 91%. In addition, the dissociation constant (Kd) in experiment [2] is 23 nM.
Turning to `CC(=O)N1CCC(C(O)(c2cccnc2)c2ccc3nc(C(F)(F)F)c(-c4ccccc4)c(C#N)c3c2)CC1` (single isomer, unassigned) [Example 30b, 6-((1-Acetylpiperidin-4-yl)(hydroxy)(pyridin-3-yl)methyl)-3-phenyl-2-(trifluoromethyl)quinoline-4-carbonitrile], the “RORγt reporter Assay, % inhibition @ 6 μM” value at human RORγt LBD came out at 95%. Moreover, the IC50 on human RORγt LBD stood at 49 nM; in experiment [1], 57 nM. In addition, in experiment [2], the dissociation constant Kd is 300 nM.
As for `COc1nc2ccc(C(O)(c3cncn3C)C3CCN(C(C)=O)CC3)cc2c(C#N)c1-c1cccc(C(F)(F)F)c1` (single isomer, unassigned) [Example 2c, 6-((1-Acetylpiperidin-4-yl)(hydroxy)(1-methyl-1H-imidazol-5-yl)methyl)-2-methoxy-3-(3-(trifluoromethyl)phenyl)quinoline-4-carbonitrile], the half-inhibitory concentration (IC50) on human RORγt LBD was found to be 170 nM.
Take `COc1c(-c2ccccc2)c(Cl)nc2ccc(C(O)(c3cnnn3C)c3cnc(C)n3C)cc12` (single isomer, unassigned) [Example 40c, (2-Chloro-4-methoxy-3-phenylquinolin-6-yl)(1,2-dimethyl-1H-imidazol-5-yl)(1-methyl-1H-1,2,3-triazol-5-yl)methanol]: the IC50 at human RORγt LBD turned out to be 190 nM. Besides, in experiment [2], the Kd was 120 nM.

As a reminder, the IC50 is the concentration needed to halve the response being measured. The term Kd denotes the concentration at which binding is half-saturated. The inhibition is the relative decrease from the control value, in per cent.
